The experiment deals with UPR counterscreen luciferase reporter, luminescence. Kind of experiment: activators in UPR counterscreen luciferase reporter, dose response, counter-screen for adaptive UPR activator project, cell-based, luminescence (AID 489027).

EC50 data for 82 compounds are collected here from PubChem BioAssay AID489027 (Sanford-Burnham Center for Chemical Genomics, 2010).

The source made the active and inactive calls. No rule for the calls is given here.

For the compound `C[C@H]1[C@H](C)CC[C@]2(C(=O)O)CC[C@]3(C)C(=CC[C@@H]4[C@@]5(C)C[C@@H](O)[C@H](O)C(C)(C)[C@@H]5CC[C@]43C)[C@H]12`, the EC50 is > 80 µM (inactive). For the compound `CC(C)(C)C(=O)NC(=S)NNC(=O)c1ccc(-c2ccccc2)cc1`, the EC50 is 8.05 µM.

Turning to `COc1ccccc1NC(=O)c1cc2c(CO)cnc(C)c2oc1=Nc1ccccc1`, the EC50 was 13.3 µM. The same measure for `Cc1nc(Nc2nc(-c3ccccc3)cc(=O)[nH]2)nc2ccccc12`: > 80 µM (inactive). The same measure for `Nc1cccc(-c2nc3cc(S(=O)(=O)c4ccc5oc(-c6cccc(N)c6)nc5c4)ccc3o2)c1`: > 80 µM (inactive); for `Cc1c(NC(=O)CSc2ccc(Cl)cc2)cccc1-c1nc2cc(Cl)ccc2o1`: > 80 µM (inactive). The same measure for `O=C(C[C@H]1C/C=C\C[C@@H](NC(=O)OCC2c3ccccc3-c3ccccc32)C(=O)O[C@@H](c2ccccc2)CNC1=O)N[C@H](CO)Cc1ccccc1`: 18.1 µM. Take `O=[N+]([O-])c1cccc(/C=C/c2ccc3cccc(O)c3n2)c1`: the EC50 was > 80 µM (inactive). The same measure for `O=C(NCC1CC1)c1cccc2c1C(=O)c1ccc(-c3ccc(OC(F)(F)F)cc3)cc1S2(=O)=O`: > 80 µM (inactive); for `O=C(C[n+]1ccc(-c2cc(C(=O)Nc3cccc(C(F)(F)F)c3)c3ccccc3n2)cc1)c1cccc([N+](=O)[O-])c1`: 16.8 µM.

As to `O=C(CSc1nc2ccc(Nc3nc(N4CCOCC4)nc(N4CCOCC4)n3)cc2s1)Nc1ccccc1F`, the EC50 was > 80 µM (inactive). The same measure for `NS(=O)(=O)c1ccc(N=Cc2c(O)n(C3CCCCC3)c(=O)n(C3CCCCC3)c2=O)cc1`: 14.6 µM. The same measure for `CCC[C@@H](CN[C@@H](CNC)[C@H](C)CC)NCC1CCC(C(C)(C)C)CC1` (some centres not stated): 6.95 µM; for `O=S(=O)(c1ccc2nc(-c3ccccc3)[nH]c2c1)N1CCN(c2ccc(Cl)cc2)CC1`: > 80 µM (inactive).

For the compound `CCCNC(=O)c1ccc2c(=O)c(O)c(-c3ccc(OC)cc3)[nH]c2c1`, the EC50 is > 80 µM (inactive). The same measure for `O=C(/C=C/c1cc([N+](=O)[O-])ccc1OC(F)F)Nc1cccc([N+](=O)[O-])c1`: > 80 µM (inactive); for `Cc1ccc(Cn2c(=O)n(-c3ccccc3)c(=O)c3ccc(C(=O)NCc4ccco4)cc32)cc1`: > 80 µM (inactive); for `O=C(CSc1nc2ccccc2c(=O)n1-c1ccccc1)N1CCc2ccccc21`: “inactive”.

Turning to `Cc1ccc2nc(Nc3nc(-c4ccccc4)cc(=O)[nH]3)nc(C)c2c1`, the EC50 is > 80 µM (inactive). For `COC(=O)c1cc([N+](=O)[O-])c(-n2ccnc2)c([N+](=O)[O-])c1`, the EC50 is > 80 µM (inactive).

Regarding `CCOC(=O)c1ccc(-c2ccc(/C=N/NC(=O)CN(c3cccc(C)c3)S(C)(=O)=O)o2)cc1`, the EC50 is 15.5 µM. As for `N#Cc1ccccc1NC(=O)COc1c(Br)cc(Br)c2cccnc12`, the EC50 result is “inactive”. The same measure for `COc1cc([C@H]2c3[nH]c4ccccc4c3C[C@H]3C(=O)N4[C@@H](c5cc(OC)c(OC)c(OC)c5)c5[nH]c6ccccc6c5C[C@H]4C(=O)N23)cc(OC)c1OC`: 7.28 µM; for `NCCc1c(-c2ccccc2)n(-c2ccccc2)c2ccccc12`: 17.9 µM. The same measure for `COc1ccc(/C=c2\s/c(=C(/C#N)C(=O)NCc3ccco3)n(-c3ccccc3)c2=O)cc1`: “inactive”; for `O=C(NCCCn1ccnc1)c1nn2c(C(F)(F)F)cc(-c3ccc(Br)cc3)nc2c1Cl`: > 80 µM (inactive); for `FC(F)(F)c1nnc2c(Sc3ccc(Cl)cc3)nc3ccccc3n12`: 4.67 µM. The same measure for `CCCCCn1c(N)c(-c2nc3ccccc3o2)c2c([N+](=O)[O-])nn(CC)c(=O)c21`: “inactive”. With `Cc1ccc(-c2cc(C(F)F)n3ncc(C(=O)N4CCc5ccccc54)c3n2)cc1`, the EC50 is > 80 µM (inactive). The same measure for `Clc1ccc(-c2ccc(/C=N/Nc3nncc(-c4ccccc4)n3)o2)cc1`: 13.6 µM. The same measure for `CCOC(=O)c1c(NC(=O)c2cc(C)on2)c2cc([N+](=O)[O-])ccc2n1C`: > 80 µM (inactive); for `COc1ccc(C(=O)Oc2cc3c4c(c2)C(C)=CC(C)(C)N4C(=O)C3=O)cc1OC`: “inactive”; for `Cc1cc(N2CCN(c3nc(-c4ccc([N+](=O)[O-])cc4)cs3)CC2)c2ccccc2n1`: 15.2 µM. The same measure for `Cc1cccc(NC(=O)CSc2nc(C)c(CC(=O)c3ccc(Br)cc3)c(C)c2C#N)c1C`: > 80 µM (inactive). In the case of `CCN(CC)S(=O)(=O)c1ccc2c(c1)C(=NO)c1cc(S(=O)(=O)N(CC)CC)ccc1-2`, the EC50 is > 80 µM (inactive). The same measure for `Nc1nc(Nc2cccc(C(F)(F)F)c2)nc(C(F)(F)F)n1`: “inactive”; for `CCOC(=O)C1=C(C)N=C2c3ccccc3C(=O)C2C1c1ccc(C)cc1` (configuration not stated): > 80 µM (inactive). The same measure for `N#Cc1ccc(-c2ccc(Cl)cc2)nc1SCC(=O)c1cccc(Cl)c1`: 8.05 µM; for `Cc1cccnc1Nc1nc(-c2ccc(O)c(O)c2)cs1`: 2.29 µM; for `Cc1ccc(-n2nc3c(N4CCC(C(=O)NCCc5cccs5)CC4)nnc(C)c3c2C)cc1`: > 80 µM (inactive). The same measure for `CC1CCN(Cc2c(C(=O)N/N=C/c3ccc(C(C)(C)C)cc3)nnn2-c2nonc2N)CC1`: 6.58 µM. `CC(C)(C)C(=O)NC(=S)NNC(=O)C(c1ccccc1)c1ccccc1`: the EC50 was 2.14 µM. The same measure for `Cc1ccc(C(=O)N2N=C(c3ccc(Br)cc3)CC2c2ccccc2O)cc1` (configuration not stated): 14.3 µM; for `CN(C)c1ccc(/C=N/NC(=O)c2ccc(NC(=O)c3ccccc3)cc2)cc1`: “inactive”. The same measure for `Oc1cc(-c2cccnc2)cc2cccnc12`: “inactive”; for `COc1ccc(N=Cc2c(O)c3ccccc3oc2=O)cc1`: 10.3 µM; for `CCOc1cc(/C=C2/NC(=S)NC2=O)ccc1OCc1ccc([N+](=O)[O-])cc1`: “inactive”. The same measure for `CCOC(=O)c1nnc(-c2ccc(C)cc2)nc1Sc1ccccc1Cl`: 14.8 µM. Consider `COc1ccc(Cc2nnc(N/N=C/c3ccc(N(C)C)cc3)[nH]c2=O)cc1OC`, for which the EC50 was > 80 µM (inactive). With `N#C/C(=C\Nc1ccc2cn[nH]c2c1)c1nc(-c2ccc(Cl)cc2)cs1`, the EC50 entry was “inactive”. `Cc1ccc2c(c1)C(c1ccc(N3CCOCC3)cc1)=NNC(c1cccs1)=N2`: the EC50 result was “inactive”.

`O=C(N/N=C/c1ccccc1Cl)c1[nH]c2ccc(Br)cc2c1-c1ccccc1`: the EC50 result is “inactive”. The same measure for `CC1CN(S(=O)(=O)c2ccc(C(=O)Nc3nc(-c4cc5ccccc5o4)cs3)cc2)CC(C)O1` (configuration not stated): 13.2 µM; for `CCOC(=O)c1sc(NC(=S)NC(=O)c2ccccc2)c(C(=O)OCC)c1C`: “inactive”.

Regarding `COC(=O)c1sccc1NC(=O)c1cc(-c2cccc(C)c2)nc2ccccc12`, the EC50 is > 80 µM (inactive). In the case of `CCc1ccc(-c2nc(CN3CCC(C(=O)NCCN(CC)c4ccccc4)CC3)c(C)o2)cc1`, the EC50 was > 80 µM (inactive). Take `Cc1ccc2c(c1)C(c1ccc([N+](=O)[O-])cc1)=NNC(c1ccc(Br)cc1)=N2`: the EC50 is > 80 µM (inactive). The same measure for `C/C(=N\Nc1ncnc2sc(C)c(C)c12)c1ccccn1`: 2.6 µM. For the compound `Cc1cc(SCC(=O)c2ccc(O)c(O)c2)n2nc(C)c(-c3ccccc3)c2n1`, the EC50 was > 80 µM (inactive). As to `CCOC(=O)c1[nH]c2ccc(Cl)cc2c1NC(=O)/C=C/c1ccc2c(c1)OCO2`, the EC50 entry was “inactive”. The same measure for `CN(c1ccccc1)S(=O)(=O)c1cccc(C(=O)NCCc2ccc(O)c(O)c2)c1`: 6.18 µM; for `FC(F)(F)c1nc2ccccc2n2c(-c3ccc(Cl)cc3)nnc12`: 13.6 µM. The same measure for `NCCOc1ccc(C23CC4CC(CC(C4)C2)C3)cc1`: 8.74 µM. The same measure for `COc1ccc(C(CCNCc2ccc(F)cc2)c2ccc(F)cc2)cc1` (configuration not stated): 13.6 µM; for `CCN(CC)CCn1c(SCC(=O)Nc2ccc(F)cc2)nc2c(sc3ccccc32)c1=O`: > 80 µM (inactive); for `O=c1[nH]c(O)c(/C=C2/C=CC(c3cc(Cl)ccc3Cl)=N2)c(=O)[nH]1`: 6.12 µM. As to `COc1cc(/C=N/NC(N)=O)c(Br)cc1OCC(=O)Nc1ccccc1C`, the EC50 entry is “inactive”. In the case of `Cc1nc(NC(=O)c2cc3c(C)nn(-c4ccccc4)c3s2)sc1C(=O)Nc1ccccc1`, the EC50 result was “inactive”. The same measure for `CCOc1ccc(-c2nnc(SCC(=O)Nc3ccc4c(c3)c3ccccc3n4CC)n2N)cc1`: 14.6 µM; for `Cc1ccc(NC(=O)Cn2c(/C=C/c3ccccc3)nc3ccccc32)cc1C`: > 80 µM (inactive).

Turning to `O=C(N/N=C/c1ccc(Cl)cc1)c1sccc1OCc1ccc(F)cc1`, the EC50 entry is “inactive”. The same measure for `CCc1sc2nc(SCC(=O)Nc3cc(C)on3)n(-c3cccc(OC)c3)c(=O)c2c1C`: 15.6 µM. The same measure for `Cn1nc(C(F)(F)F)c(/C=N/OC(=O)c2ccccc2Cl)c1SCc1ccccc1Cl`: “inactive”. The same measure for `O=[N+]([O-])c1ccc(N/N=C/c2ccc(OCc3cccc4ccccc34)cc2)nc1`: > 80 µM (inactive).

For the compound `O=C(Nc1ccc(Oc2ccc(NC(=O)Nc3ccccc3Cl)cc2)cc1)Nc1ccccc1Cl`, the EC50 is > 80 µM (inactive). The same measure for `CCOc1ccc(-n2nc3ccc(NC(=O)c4ccc5c(c4)OCCO5)cc3n2)cc1`: “inactive”; for `Cn1c(=O)c2c(SCC(=O)Nc3ccccc3F)nc(-c3ccccc3F)nc2n(C)c1=O`: “inactive”; for `COc1ccc(Br)cc1-c1nc2c(c(=O)[nH]c(=O)n2Cc2ccccc2)n1C`: > 80 µM (inactive).

In the case of `CCN=C1S/C(=C\c2cn(CC(=O)NCc3ccco3)c3ccccc23)C(=O)N1CC`, the EC50 was > 80 µM (inactive). The same measure for `Cc1cc(NC(=O)c2cc(-c3ccccn3)nc3ccc(Br)cc23)no1`: > 80 µM (inactive); for `Cc1nn(Cc2c(Cl)cccc2Cl)c(C)c1NC(=O)c1cn(-c2ccccc2)nc1-c1ccccc1`: 3.67 µM; for `CCCCCCCCCCOC(=O)Cn1c(COc2ccc(C)cc2)[n+](C)c2ccccc21`: > 80 µM (inactive).

By EC50 is commonly meant the concentration that produces a half-maximal response.
